The source made the active and inactive calls.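 The calls were made as follows: active = maximal percent inhibition of the deubiquitinase OTUD3 of at least 30% across the tested doses; inactive = the rest.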

The text below walks through data of PubChem BioAssay AID1645868 (Buhrlage Lab, Dana-Farber Cancer Institute and Novartis …, 2021).

The assay concerns the target OTU domain-containing protein 3 (Homo sapiens) (UniProt Q5T2D3). Nature of the assay: Validation of screening hits, potency titration, in vitro enzymatic, OTU domain-containing protein 3 DUB inhibitors (AID 1645868). The note with it: purified OTUD3, ubiquitin-rhodamine cleavage fluorescence, 2 h.

Chain of OTU domain-containing protein 3 (Homo sapiens) (Q5T2D3 whole entry, looked up, the tested form may be a part): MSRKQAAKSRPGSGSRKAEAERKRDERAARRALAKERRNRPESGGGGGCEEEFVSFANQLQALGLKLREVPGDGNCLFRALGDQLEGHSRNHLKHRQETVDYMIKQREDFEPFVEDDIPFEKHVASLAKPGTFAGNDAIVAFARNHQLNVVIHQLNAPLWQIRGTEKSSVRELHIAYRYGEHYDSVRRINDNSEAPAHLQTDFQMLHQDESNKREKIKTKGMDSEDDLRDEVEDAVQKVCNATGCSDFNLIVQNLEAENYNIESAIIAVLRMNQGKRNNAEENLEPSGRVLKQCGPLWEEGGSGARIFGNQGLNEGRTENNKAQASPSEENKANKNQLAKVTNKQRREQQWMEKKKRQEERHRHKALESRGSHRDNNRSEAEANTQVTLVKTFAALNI

In the case of `Cc1ccc(C)c(NC(=O)CCc2nc(CSc3nc4ccccc4o3)no2)c1`, the IC50 (usually the midpoint of a concentration-inhibition curve) is 22 µM. Regarding `Cc1c(C)c2ccc(OCC(=O)NCc3ccncc3)c(C)c2oc1=O`, the IC50 was > 50 µM (inactive). As to `Cc1cc(=O)c2c(O)oc(O)c3c(O)cc(=O)c1c32`, the IC50 was 33.9 µM.

Take `Fc1ccc(-c2noc(-c3nnc(NCc4cccnc4)c4ccccc34)n2)cc1`: the IC50 was > 50 µM (inactive). Under `Cc1ccc(S(=O)(=O)NCC(=O)OC(C(=O)Nc2cc(C)ccc2C)c2ccccc2)cc1` (centres undefined) stands > 50 µM (inactive). Consider `Cc1c(C(=O)Nc2cccc(C(F)(F)F)c2)cnn1-c1ccccn1`, for which the IC50 was > 50 µM (inactive). Then `Cc1ccc(Nc2nc(Nc3cccc(Cl)c3)nc3nccnc23)cc1`, with > 50 µM (inactive); and `Cc1c(-c2nnc(-c3ccccn3)o2)nnn1-c1cccc(Cl)c1`, with 48.5 µM.

On to `O=C1c2c(O)c(Cl)cc3c2[C@@]2(Oc4cc(Cl)c(O)c5c4[C@]3(O2)[C@@H]2O[C@@H]2C5=O)[C@@H]2O[C@H]12`, for which the IC50 was 0.703 µM. Then `CC(C)N1CC[C@@H]2[C@H](C1)CN2C(=O)Nc1cccc(F)c1`, with > 50 µM (inactive). Under `O=C(c1ccco1)N1CCCC2(C1)Nc1cccnc1NC2=NC1CCCC1` (centres undefined) stands > 50 µM (inactive); under `C/C=C\C1=CC(=O)[C@]23C[C@H]2[C@]2(C)CO[C@@]1(O)[C@@]3(O)O2`, > 50 µM (inactive); under `CCOc1cccc2sc(N(Cc3cccnc3)C(=O)CCc3ccccc3)nc12`, > 50 µM (inactive).

Consider `c1ccc(-c2ccc(NCc3ccc4c(c3)OCO4)nn2)cc1`, for which the IC50 is 23.1 µM. Under `CCc1nc(-c2cccc(NC(=O)c3ccc(C#N)cc3F)c2)no1` stands > 50 µM (inactive); under `Cc1noc(-c2cccn(Cc3cccc(C(F)(F)F)c3)c2=O)n1`, > 50 µM (inactive). With `CC(=O)c1ccc(NC(=O)c2ccc(N3CCCCS3(=O)=O)cc2Cl)cc1`, the IC50 is 37 µM.

For `O=C(Nc1ccc(NS(=O)(=O)c2ccc3c4c(cccc24)CC3)cc1)c1ccccc1`, the IC50 was > 50 µM (inactive).

Take `Fc1cnc(N2CC[C@H]3CO[C@H](CNc4ncccn4)[C@H]3C2)nc1`: the IC50 is > 50 µM (inactive). Regarding `Cc1ccc(C)c(-n2c(N)c(C(=O)NCCc3ccccc3)c3nc4ccccc4nc32)c1`, the IC50 was > 50 µM (inactive). Then `c1ccc(-c2nc(-c3nnn(-c4ccccc4)c3-c3ccncc3)no2)cc1`, with 26.8 µM; and `CC(C)CC1NC(=O)C2CCCN2C1=O` (centres undefined), with > 50 µM (inactive).

For the compound `Cn1cc(-c2cnc(-c3cccc(F)c3)nc2)cc1C(=O)NCc1cccnc1`, the IC50 was > 50 µM (inactive). Under `N#Cc1ccccc1Cn1c(=O)n(Cc2ccco2)c(=O)c2ccccc21` stands > 50 µM (inactive); under `COc1cccc(OCCCn2c(C(C)NC(=O)c3ccco3)nc3ccccc32)c1` (centres undefined), 32.8 µM. Under `CCOc1ccc2c(c1)c(=O)c(C(=O)c1ccc(C)cc1)cn2CC(=O)Nc1ccc(OC)c(OC)c1` stands 2.01 µM; under `CC1CCc2c(sc3nc(CC#N)[nH]c(=O)c23)C1` (centres undefined), > 50 µM (inactive). Under `CCCCCCCc1cc(O)cc(O)c1` stands > 50 µM (inactive); under `CCc1cc(C(=O)c2ccc(OC)cc2)c(NC(=O)CN2CCCCC2)s1`, > 50 µM (inactive); under `CC(C(=O)Nc1ccccc1)n1cnc2nc(N3CCCCC3)ncc2c1=O` (centres undefined), > 50 µM (inactive).

As for `COc1ccc(C(=O)Nc2cc(F)c3nc(N4CCOCC4)ccc3c2)c(OC)c1`, the IC50 was > 50 µM (inactive). Then `COCCNC(=O)c1cc(-c2cn(-c3ccccn3)c(C)n2)n2ccccc12`, with > 50 µM (inactive). On to `Cc1nn(-c2ccccc2)c(C)c1C(=O)OCC(=O)Nc1cccc(C#N)c1`, for which the IC50 is > 50 µM (inactive). Then `CC(C)(C)C(=O)Nc1ccc(C(=O)Nc2cccc(-c3nnc(-c4ccccc4)o3)c2)cc1`, with 16.8 µM; and `O=C(CCc1nnc2n(Cc3ccccc3Cl)c(=O)c3ccccc3n12)NCc1ccccn1`, with > 50 µM (inactive); and `CN1CC2CN(C(=O)Nc3cccnc3)CCN2Cc2ccccc21` (centres undefined), with > 50 µM (inactive). Under `NS(=O)(=O)c1cccc(NC(=O)CN2CCCc3ccccc32)c1` stands > 50 µM (inactive); under `O=c1c(S(=O)(=O)c2cc(F)cc(F)c2)c[nH]c2cc(Cl)ccc12`, 40.1 µM.

As for `Cc1nc(-c2ccc(C(=O)NCc3ccc(F)cc3)cc2)cs1`, the IC50 was > 50 µM (inactive).

With `CCc1ccc(NC(=O)COC(=O)c2n[nH]c3ccccc23)cc1`, the IC50 is 49.8 µM. Then `CC(C)Cn1cc(OC(=O)c2ccc(F)cc2)c2c1nc(-c1ccc(F)cc1)n1c3ccccc3nc21`, with > 50 µM (inactive). Under `COc1cccc(NC(=O)C2CCN(C(=O)c3cc(-c4cccnc4)n[nH]3)CC2)c1` stands > 50 µM (inactive). Then `COc1cc(OC)cc(C(=O)Nc2cnc(-c3ccccc3)nc2)c1`, with > 50 µM (inactive); and `CCOc1cc(C2C3=C(CC(C)(C)CC3=O)Nc3onc(C)c32)ccc1O` (centres undefined), with > 50 µM (inactive). As to `Cn1cc(CCNC(=O)c2cc3ccccc3[nH]2)c2cccnc21`, the IC50 was > 50 µM (inactive). Turning to `Cc1ccccc1C(=O)c1ccc(C(=O)NC2CCCCCC2)[nH]1`, the IC50 is 20.7 µM. Under `COc1cc(NC(=O)Cn2c(=O)n(-c3ccc(CC(=O)NC4CCCC4)cc3)c(=O)c3ccccc32)cc(OC)c1` stands > 50 µM (inactive); under `COc1cnc(CSc2ncccn2)cc1OCC(=O)Nc1cc(C)ccc1C`, > 50 µM (inactive); under `O=C1Oc2nc3ccccc3cc2CN1Cc1ccco1`, 34.4 µM. As for `Cc1ccc(S(=O)(=O)c2cnc(SCC(=O)Nc3ccc(Cl)cc3)nc2N)cc1C`, the IC50 is > 50 µM (inactive). With `COc1ccccc1NC(=O)CNC(=O)c1nn(-c2ccc(OC)c(OC)c2)c(=O)c2ccccc12`, the IC50 is 38.8 µM. Take `COc1ccccc1-c1nc(-c2nnn(Cc3ccc(C)cc3)c2C)no1`: the IC50 is > 50 µM (inactive). Then `CCC(=O)Nc1ccc2c(c1)nc(CSc1nccc(C)n1)n2CC`, with > 50 µM (inactive); and `C=C(NC(=O)C(=C)NC(=O)c1csc(C2=N[C@@H]3c4csc(n4)[C@H]4NC(=O)c5csc(n5)[C@H]([C@](C)(O)[C@@H](C)O)NC(=O)[C@H]5CSC(=N5)/C(=C/C)NC(=O)C([C@@H](C)O)NC(=O)c5csc(n5)C3(CC2)NC(=O)[C@H](C)NC(=O)C(=C)NC(=O)[C@H](C)NC(=O)C([C@@H](C)CC)N[C@@H]2C=Cc3c(C(C)O)cc(nc3[C@H]2O)C(=O)OC4C)n1)C(N)=O` (some centres undefined), with > 50 µM (inactive). Then `NC(=O)C1(N2CCCCC2)CCN(C(=O)c2[nH]nc3c2CCc2ccccc2-3)CC1`, with > 50 µM (inactive); and `CCOc1ccc(CCNC(=O)c2cccc3c2C(=O)N(CCOC)C3)cc1OCC`, with > 50 µM (inactive). Under `O=C(Cn1nc2c3c4c(sc3ncn2c1=O)CCCCC4)Nc1ccc(Cl)cc1F` stands 17.6 µM; under `COc1cccc(NC(=O)Nc2ccc(CCc3nc4ccccc4[nH]3)cc2)c1`, 48.5 µM. Regarding `COc1ccc(NC(=O)CC(=O)c2ccc([N+](=O)[O-])cc2)cc1S(=O)(=O)Nc1ccc(Cl)cc1`, the IC50 was 35.5 µM.
